# Results published in patent US9149038B2, “4-amino-6-(heterocyclic)picolinates and 6-amino-2-(heterocyclic)pyrimidine-4-carboxylates and their use as herbicides” (Dow AgroSciences LLC, priority 2013, dated 2015).
# Read-outs that look alike come from different tables or passages of the source.
# What was measured:
# [1] = tested on: Key Broadleaf Weed and Crop Species; assay: Post-Emergent Test II: postemergent herbicidal activity, visual rating after 14 d (Table 7); type: in vivo; conditions: post-emergence, 336 h; for pest or weed control at 35 g/ha: 35 g ai/ha; for pest or weed control at 70 g/ha: 70 g ai/ha; for pest or weed control at 140 g/ha: 140 g ai/ha; for pest or weed control at 280 g/ha: 280 g ai/ha
# How it was run: (§1)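 Greenhouse-grown plants at the first or second true leaf stage (7-21 d, ~15 h photoperiod, 23-29° C day) were sprayed with compound in acetone/DMSO-based aqueous spray containing crop oil concentrate and Triton X-155 at 187 L/ha. Injury versus untreated plants was rated visually after 14 d on a 0-100 scale.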
# [2] = tested on: Key Grass and Sedge Weeds as well as Grass Crops; assay: Post-Emergent Test II: postemergent herbicidal activity, visual rating after 14 d (Table 8); type: in vivo; conditions: post-emergence, 336 h; for pest or weed control at 35 g/ha: 35 g ai/ha; for pest or weed control at 70 g/ha: 70 g ai/ha; for pest or weed control at 140 g/ha: 140 g ai/ha; for pest or weed control at 280 g/ha: 280 g ai/ha
# How it was run: as §1
# [3] = lambsquarters (Chenopodium album), read-out: Visual Growth Reduction (%) 14 Days After Application CHEAL
# [4] = oilseed rape, canola (Brassica napus), read-out: Visual Growth Reduction (%) 14 Days After Application BRSNN
# [5] = redroot pigweed (Amaranthus retroflexus), read-out: Visual Growth Reduction (%) 14 Days After Application AMARE
# [6] = sunflower (Helianthus annuus), read-out: Visual Growth Reduction (%) 14 Days After Application HELAN
# [7] = velvetleaf (Abutilon theophrasti), read-out: Visual Growth Reduction (%) 14 Days After Application ABUTH
# [8] = wild poinsettia (Euphorbia heterophylla), read-out: Visual Growth Reduction (%) 14 Days After Application EPHHL
# [9] = barnyardgrass (Echinochloa crus-galli), read-out: Visual Growth Reduction (%) 14 Days After Application ECHCG
# [10] = giant foxtail (Setaria faberi), read-out: Visual Growth Reduction (%) 14 Days After Application SETFA
# [11] = maize, corn (Zea mays), read-out: Visual Growth Reduction (%) 14 Days After Application ZEAMX
# [12] = rice (Oryza sativa), read-out: Visual Growth Reduction (%) 14 Days After Application ORYSA
# [13] = wheat, spring (Triticum aestivum), read-out: Visual Growth Reduction (%) 14 Days After Application TRZAS
# [14] = yellow nutsedge (Cyperus esculentus), read-out: Visual Growth Reduction (%) 14 Days After Application CYPES
structure (smiles),measurement,setting,value
"COC(=O)c1nc(-c2cccc3c2OCO3)c(F)c(N)c1Cl [Compound 71, Methyl 4-amino-6-(benzo[d][1,3]dioxol-4-yl)-3-chloro-5-fluoropicolinate]",pest or weed control at 35 g/ha,[1]; [3],95 to 100%
same,pest or weed control at 70 g/ha,[1]; [3],95 to 100%
same,pest or weed control at 140 g/ha,[1]; [3],95 to 100%
same,pest or weed control at 280 g/ha,[1]; [3],95 to 100%
same,pest or weed control at 35 g/ha,[1]; [4],30 to 44%
same,pest or weed control at 70 g/ha,[1]; [4],85 to 94%
same,pest or weed control at 140 g/ha,[1]; [4],85 to 94%
same,pest or weed control at 280 g/ha,[1]; [4],95 to 100%
same,pest or weed control at 35 g/ha,[1]; [5],60 to 74%
same,pest or weed control at 70 g/ha,[1]; [5],95 to 100%
same,pest or weed control at 140 g/ha,[1]; [5],95 to 100%
same,pest or weed control at 280 g/ha,[1]; [5],95 to 100%
same,pest or weed control at 35 g/ha,[1]; [6],85 to 94%
same,pest or weed control at 70 g/ha,[1]; [6],95 to 100%
same,pest or weed control at 140 g/ha,[1]; [6],95 to 100%
same,pest or weed control at 280 g/ha,[1]; [6],95 to 100%
same,pest or weed control at 35 g/ha,[1]; [7],60 to 74%
same,pest or weed control at 70 g/ha,[1]; [7],75 to 84%
same,pest or weed control at 140 g/ha,[1]; [7],95 to 100%
same,pest or weed control at 280 g/ha,[1]; [7],95 to 100%
same,pest or weed control at 35 g/ha,[1]; [8],0 to 29%
same,pest or weed control at 70 g/ha,[1]; [8],0 to 29%
same,pest or weed control at 140 g/ha,[1]; [8],0 to 29%
same,pest or weed control at 280 g/ha,[1]; [8],0 to 29%
same,pest or weed control at 35 g/ha,[2]; [9],0 to 29%
same,pest or weed control at 70 g/ha,[2]; [9],0 to 29%
same,pest or weed control at 140 g/ha,[2]; [9],0 to 29%
same,pest or weed control at 280 g/ha,[2]; [9],0 to 29%
same,pest or weed control at 35 g/ha,[2]; [10],0 to 29%
same,pest or weed control at 70 g/ha,[2]; [10],0 to 29%
same,pest or weed control at 140 g/ha,[2]; [10],0 to 29%
same,pest or weed control at 280 g/ha,[2]; [10],0 to 29%
same,pest or weed control at 35 g/ha,[2]; [11],0 to 29%
same,pest or weed control at 70 g/ha,[2]; [11],0 to 29%
same,pest or weed control at 140 g/ha,[2]; [11],0 to 29%
same,pest or weed control at 280 g/ha,[2]; [11],0 to 29%
same,pest or weed control at 35 g/ha,[2]; [12],0 to 29%
same,pest or weed control at 70 g/ha,[2]; [12],0 to 29%
same,pest or weed control at 140 g/ha,[2]; [12],0 to 29%
same,pest or weed control at 280 g/ha,[2]; [12],0 to 29%
same,pest or weed control at 35 g/ha,[2]; [13],0 to 29%
same,pest or weed control at 70 g/ha,[2]; [13],0 to 29%
same,pest or weed control at 140 g/ha,[2]; [13],0 to 29%
same,pest or weed control at 280 g/ha,[2]; [13],0 to 29%
same,pest or weed control at 35 g/ha,[2]; [14],0 to 29%
same,pest or weed control at 70 g/ha,[2]; [14],0 to 29%
same,pest or weed control at 140 g/ha,[2]; [14],30 to 44%
same,pest or weed control at 280 g/ha,[2]; [14],45 to 59%
"Nc1c(F)c(-c2cccc3c2OCO3)nc(C(=O)O)c1Cl [Compound 72, 4-Amino-6-(benzo[d][1,3]dioxol-4-yl)-3-chloro-5-fluoropicolinic acid]",pest or weed control at 35 g/ha,[1]; [3],95 to 100%
same,pest or weed control at 70 g/ha,[1]; [3],95 to 100%
same,pest or weed control at 140 g/ha,[1]; [3],95 to 100%
same,pest or weed control at 280 g/ha,[1]; [3],95 to 100%
same,pest or weed control at 35 g/ha,[1]; [4],75 to 84%
same,pest or weed control at 70 g/ha,[1]; [4],95 to 100%
same,pest or weed control at 140 g/ha,[1]; [4],95 to 100%
same,pest or weed control at 280 g/ha,[1]; [4],95 to 100%
same,pest or weed control at 35 g/ha,[1]; [5],95 to 100%
same,pest or weed control at 70 g/ha,[1]; [5],95 to 100%
same,pest or weed control at 140 g/ha,[1]; [5],95 to 100%
same,pest or weed control at 280 g/ha,[1]; [5],95 to 100%
same,pest or weed control at 35 g/ha,[1]; [6],95 to 100%
same,pest or weed control at 70 g/ha,[1]; [6],95 to 100%
same,pest or weed control at 140 g/ha,[1]; [6],95 to 100%
same,pest or weed control at 280 g/ha,[1]; [6],95 to 100%
same,pest or weed control at 35 g/ha,[1]; [7],75 to 84%
same,pest or weed control at 70 g/ha,[1]; [7],95 to 100%
same,pest or weed control at 140 g/ha,[1]; [7],95 to 100%
same,pest or weed control at 280 g/ha,[1]; [7],95 to 100%
same,pest or weed control at 35 g/ha,[1]; [8],0 to 29%
same,pest or weed control at 70 g/ha,[1]; [8],0 to 29%
same,pest or weed control at 140 g/ha,[1]; [8],0 to 29%
same,pest or weed control at 280 g/ha,[1]; [8],0 to 29%
same,pest or weed control at 35 g/ha,[2]; [9],0 to 29%
same,pest or weed control at 70 g/ha,[2]; [9],0 to 29%
same,pest or weed control at 140 g/ha,[2]; [9],0 to 29%
same,pest or weed control at 280 g/ha,[2]; [9],0 to 29%
same,pest or weed control at 35 g/ha,[2]; [10],0 to 29%
same,pest or weed control at 70 g/ha,[2]; [10],0 to 29%
same,pest or weed control at 140 g/ha,[2]; [10],0 to 29%
same,pest or weed control at 280 g/ha,[2]; [10],0 to 29%
same,pest or weed control at 35 g/ha,[2]; [11],0 to 29%
same,pest or weed control at 70 g/ha,[2]; [11],0 to 29%
same,pest or weed control at 140 g/ha,[2]; [11],0 to 29%
same,pest or weed control at 280 g/ha,[2]; [11],0 to 29%
same,pest or weed control at 35 g/ha,[2]; [12],0 to 29%
same,pest or weed control at 70 g/ha,[2]; [12],0 to 29%
same,pest or weed control at 140 g/ha,[2]; [12],0 to 29%
same,pest or weed control at 280 g/ha,[2]; [12],0 to 29%
same,pest or weed control at 35 g/ha,[2]; [13],0 to 29%
same,pest or weed control at 70 g/ha,[2]; [13],0 to 29%
same,pest or weed control at 140 g/ha,[2]; [13],0 to 29%
same,pest or weed control at 280 g/ha,[2]; [13],0 to 29%
same,pest or weed control at 35 g/ha,[2]; [14],0 to 29%
same,pest or weed control at 70 g/ha,[2]; [14],0 to 29%
same,pest or weed control at 140 g/ha,[2]; [14],0 to 29%
same,pest or weed control at 280 g/ha,[2]; [14],0 to 29%
